Measured values from patent US12180187B2, “1-phenyl-5-azinylpyrazolyl-3-oxyalkyl acids and their use for controlling unwanted plant growth” (BAYER AKTIENGESELLSCHAFT, priority 2019, dated 2024).

Experiments:
[1] = tested on: STEME; test: Pre-emergence action against STEME, 1280 g/ha; format: in vivo, Stellaria media; conditions: scored visually after about 3 weeks vs untreated controls (100% = plants have died)
Summary of the method: (§1)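 Sandy loam pots, seeds covered with soil; aqueous WP/EC spray on covering soil, 0.5% additive, 600 L/ha. Greenhouse growth, good conditions. Readout: visual % activity at ~3 weeks (0% = like control, 100% = dead).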

[2] = tested on: AMARE; test: Pre-emergence action against AMARE, 1280 g/ha; format: in vivo, Amaranthus retroflexus; conditions: scored visually after about 3 weeks vs untreated controls (100% = plants have died)
Summary of the method: as §1

[3] = tested on: VERPE; test: Pre-emergence action against VERPE, 1280 g/ha; format: in vivo, Veronica persica; conditions: scored visually after about 3 weeks vs untreated controls (100% = plants have died)
Summary of the method: as §1

[4] = tested on: ALOMY; test: Pre-emergence action against ALOMY, 1280 g/ha; format: in vivo, Alopecurus myosuroides; conditions: visual scoring after about 3 weeks vs untreated controls, 100% = plants have died, 0% = like control plants
Summary of the method: as §1

[5] = tested on: VERPE; test: Post-emergence action against VERPE, 1.28 kg/ha; format: in vivo, Veronica persica; conditions: dosage 1280 g/ha, visual rating about 3 weeks after treatment vs untreated controls (100% = plants died)
Summary of the method: (§2)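 Spray at one-leaf stage with WP/EC + 0.5% additive, 600 L water/ha. Greenhouse, optimum conditions, ~3 wk. Visual % control vs untreated; 0 = no effect, 100 = dead.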

[6] = tested on: DIGSA; test: Pre-emergence action against DIGSA, 1280 g/ha; format: in vivo, Digitaria sanguinalis; conditions: visual scoring after about 3 weeks vs untreated controls, 100% = plants have died, 0% = like control plants
Summary of the method: as §1

[7] = tested on: KCHSC; test: Pre-emergence action against KCHSC, 1280 g/ha; format: in vivo, Bassia scoparia; conditions: scored visually after about 3 weeks vs untreated controls (100% = plants have died)
From the text: 1. Pre-Emergence Herbicidal Effect and Crop Plant Compatibility a) Seeds of mono- and dicotyledonous weed plants are placed in plastic pots in sandy loam soil (doubly sown with one species each of mono- or dicotyledonous weed plants per pot) and covered with soil. The compounds of the invention, formulated in the form of wettable powders (WP) or as emulsion concentrates (EC), are then applied onto the surface of the covering soil as aqueous suspension or emulsion with addition of 0.5% additive at a water application rate equivalent to 600 litres per hectare. After the treatment, the pots are placed in a greenhouse and kept under good growth conditions for the trial plants. After about 3 weeks, the effect of the preparations is scored visually in comparison with untreated controls as percentages. For example, 100% activity=the plants have died, 0% activity=like control plants. 1. Pre-Emergence Effectiveness Tables 1 to 12 below show the effects of selected compounds of the general formula (I) according to Tables 1 and 2 on various harmful plants and at an application rate corresponding to 1280 g/ha, which were obtained by the experimental procedure mentioned above.

[8] = tested on: MATIN; test: Pre-emergence action against MATIN, 1280 g/ha; format: in vivo, Tripleurospermum inodorum (Matricaria inodora); conditions: scored visually after about 3 weeks vs untreated controls (100% = plants have died)
Summary of the method: as §1

[9] = tested on: POAAN; test: Pre-emergence action against POAAN, 1280 g/ha; format: in vivo, Poa annua; conditions: visual scoring after about 3 weeks vs untreated controls, 100% = plants have died, 0% = like control plants
Summary of the method: as §1

[10] = tested on: LOLRI; test: Pre-emergence action against LOLRI, 1280 g/ha; format: in vivo, Lolium rigidum; conditions: visual scoring after about 3 weeks vs untreated controls, 100% = plants have died, 0% = like control plants
Summary of the method: as §1

[11] = tested on: SETVI; test: Pre-emergence action against SETVI, 1280 g/ha; format: in vivo, Setaria viridis; conditions: visual scoring after about 3 weeks vs untreated controls, 100% = plants have died, 0% = like control plants
Summary of the method: as §1

[12] = tested on: ALOMY; test: Post-emergence action against ALOMY, 1.28 kg/ha; format: in vivo, Alopecurus myosuroides; conditions: dosage 1280 g/ha, visual rating about 3 weeks after treatment vs untreated controls
Summary of the method: as §2

[13] = tested on: ABUTH; test: Post-emergence action against ABUTH, 1.28 kg/ha; format: in vivo, Abutilon theophrasti; conditions: dosage 1280 g/ha, visual rating about 3 weeks after treatment vs untreated controls (100% = plants died)
Summary of the method: as §2

[14] = tested on: DIGSA; test: Post-emergence action against DIGSA, 1.28 kg/ha; format: in vivo, Digitaria sanguinalis; conditions: dosage 1280 g/ha, visual rating about 3 weeks after treatment vs untreated controls
Summary of the method: as §2

[15] = tested on: ECHCG; test: Pre-emergence action against ECHCG, 1280 g/ha; format: in vivo, Echinochloa crus-galli; conditions: visual scoring after about 3 weeks vs untreated controls, 100% = plants have died, 0% = like control plants
Summary of the method: as §1

[16] = tested on: POAAN; test: Post-emergence action against POAAN, 1.28 kg/ha; format: in vivo, Poa annua; conditions: dosage 1280 g/ha, visual rating about 3 weeks after treatment vs untreated controls
Summary of the method: as §2

[17] = tested on: MATIN; test: Post-emergence action against MATIN, 1.28 kg/ha; format: in vivo, Tripleurospermum inodorum (Matricaria inodora); conditions: dosage 1280 g/ha, visual rating about 3 weeks after treatment vs untreated controls (100% = plants died)
Summary of the method: as §2

[18] = tested on: ECHCG; test: Post-emergence action against ECHCG, 1.28 kg/ha; format: in vivo, Echinochloa crus-galli; conditions: dosage 1280 g/ha, visual rating about 3 weeks after treatment vs untreated controls
Summary of the method: as §2

[19] = tested on: STEME; test: Post-emergence action against STEME, 1.28 kg/ha; format: in vivo, Stellaria media; conditions: dosage 1280 g/ha, visual rating about 3 weeks after treatment vs untreated controls (100% = plants died)
Summary of the method: as §2

[20] = tested on: LOLRI; test: Post-emergence action against LOLRI, 1.28 kg/ha; format: in vivo, Lolium rigidum; conditions: dosage 1280 g/ha, visual rating about 3 weeks after treatment vs untreated controls
Summary of the method: as §2

[21] = tested on: AMARE; test: Post-emergence action against AMARE, 1.28 kg/ha; format: in vivo, Amaranthus retroflexus; conditions: dosage 1280 g/ha, visual rating about 3 weeks after treatment vs untreated controls (100% = plants died)
Summary of the method: as §2

[22] = tested on: DIGSA; test: Pre-emergence action at 320 g/ha against DIGSA; format: in vivo, Digitaria sanguinalis; conditions: visual scoring after about 3 weeks vs untreated controls
From the text: b) Seeds of monocotyledonous and dicotyledonous weed plants and crop plants are placed in plastic or organic planting pots and covered with soil. The compounds of the invention, formulated in the form of wettable powders (WP) or as emulsion concentrates (EC), are then applied onto the surface of the covering soil as aqueous suspension or emulsion with addition of 0.5% additive at a water application rate of 600 l/ha (converted). After the treatment, the pots are placed in a greenhouse and kept under good growth conditions for the trial plants. After about 3 weeks, the effect of the preparations is scored visually in comparison with untreated controls as percentages. For example, 100% activity=the plants have died, 0% activity=like control plants. Tables 13 to 26 below show the effects of selected compounds of the general formula (I) on various harmful plants and at an application rate corresponding to 320 g/ha, which were obtained by the experimental procedure mentioned above.

[23] = tested on: VERPE; test: Pre-emergence action at 320 g/ha against VERPE; format: in vivo, Veronica persica; conditions: visual scoring after about 3 weeks vs untreated controls
Summary of the method: (§3)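 Percent herbicidal activity was assessed by eye roughly three weeks post-application, comparing with untreated plants. Treatment consisted of applying formulated compound in water plus 0.5% additive to covering soil at 600 l/ha before emergence.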

[24] = tested on: MATIN; test: Pre-emergence action at 320 g/ha against MATIN; format: in vivo, Tripleurospermum inodorum (Matricaria inodora); conditions: visual scoring after about 3 weeks vs untreated controls
Summary of the method: as §3

[25] = tested on: ALOMY; test: Pre-emergence action at 320 g/ha against ALOMY; format: in vivo, Alopecurus myosuroides; conditions: scored visually after about 3 weeks vs untreated controls (100% = plants have died)
Summary of the method: as §3

[26] = tested on: VIOTR; test: Pre-emergence action at 320 g/ha against VIOTR; format: in vivo, Viola tricolor; conditions: dosage 320 g/ha
Summary of the method: as §3

[27] = tested on: AMARE; test: Pre-emergence action at 320 g/ha against AMARE; format: in vivo, Amaranthus retroflexus; conditions: visual scoring after about 3 weeks vs untreated controls
Summary of the method: as §3

[28] = tested on: POLCO; test: Pre-emergence action at 320 g/ha against POLCO; format: in vivo, Fallopia convolvulus (Polygonum convolvulus); conditions: visual scoring after about 3 weeks vs untreated controls
Summary of the method: as §3

[29] = tested on: SETVI; test: Pre-emergence action at 320 g/ha against SETVI; format: in vivo, Setaria viridis; conditions: visual scoring after about 3 weeks vs untreated controls
Summary of the method: as §3

[30] = tested on: ALOMY; test: Post-emergence action against ALOMY, 320 g/ha; format: in vivo, Alopecurus myosuroides; conditions: dosage 320 g/ha, visual rating about 3 weeks after treatment vs untreated controls (100% = plants died)
From the text: Accordingly, the compounds of the invention have good herbicidal action against a broad spectrum of weed grasses and broad-leaved weeds and are therefore suitable for controlling unwanted vegetation by the post-emergence method. • b) Seeds of monocotyledonous and dicotyledonous weeds and crop plants are placed in sandy loam in plastic or organic planting pots, covered with soil and cultivated in a greenhouse under controlled growth conditions. 2 to 3 weeks after sowing, the test plants are treated at the one-leaf stage. The compounds of the invention, formulated in the form of wettable powders (WP) or as emulsion concentrates (EC), are then sprayed onto the green parts of the plants as aqueous suspension or emulsion with addition of 0.5% additive at a water application rate of 600 l/ha (converted). After the test plants have been kept in the greenhouse under optimum growth conditions for about 3 weeks, the activity of the preparations is rated visually in comparison to untreated controls. For example, 100% activity=the plants have died, 0% activity=like control plants. Tables 39 to 49 below show the effects of selected compounds of the general formula (I) according to Tables 1 and 2 on various harmful plants and at an application rate corresponding to 320 g/ha, which were obtained by the experimental procedure mentioned above.

| SMILES | Pre-emergence action against STEME [1] | Pre-emergence action against AMARE [2] | Pre-emergence action against VERPE [3] | Pre-emergence action against ALOMY [4] | Post-emergence action against VERPE [5] | Pre-emergence action against DIGSA [6] | Pre-emergence action against KCHSC [7] | Pre-emergence action against MATIN [8] | Pre-emergence action against POAAN [9] | Pre-emergence action against LOLRI [10] | Pre-emergence action against SETVI [11] | Post-emergence action against ALOMY [12] | Post-emergence action against ABUTH [13] | Post-emergence action against DIGSA [14] | Pre-emergence action against ECHCG [15] | Post-emergence action against POAAN [16] | Post-emergence action against MATIN [17] | Post-emergence action against ECHCG [18] | Post-emergence action against STEME [19] | also measured |
| --- | --- | --- | --- | --- | --- | --- | --- | --- | --- | --- | --- | --- | --- | --- | --- | --- | --- | --- | --- | --- |
| C[C@@H](Oc1nn(-c2ccccc2F)c(-c2cnccn2)c1Br)C(=O)O [Example I-002] | 100% | 100% | 100% | 90% | 90% | 100% | 100% | 100% | 100% | 90% | 100% |  |  |  |  |  |  |  |  |  |
| O=C(O)C1CCN(C(=O)COc2nn(-c3ccccc3F)c(-c3cncc(F)c3)c2Br)C1 (stereo not shown) [Example X-040] | 90% | 90% | 90% |  | 100% | 90% | 90% | 90% | 90% | 90% | 90% | 100% | 90% | 90% | 90% | 100% | 100% |  |  |  |
| O=C(COc1nn(-c2ccccc2F)c(-c2ccc(F)cn2)c1Br)NO [II-017] | 90% | 100% |  |  | 90% | 100% | 100% | 90% | 100% |  | 100% | 100% |  |  |  | 100% | 90% |  |  |  |
| CCOC(=O)COc1nn(-c2ccccc2C)c(-c2ccc(F)nc2)c1I [VII-058] | 100% | 100% | 100% | 90% | 90% | 100% | 90% | 100% | 100% | 100% | 100% | 100% | 90% | 100% | 100% | 100% | 90% | 100% | 90% | Post-emergence action against LOLRI [20]: 100%; Post-emergence action against AMARE [21]: 100% |
| CCOC(=O)COc1nn(-c2ccccc2C)c(-c2ccc(F)nc2)c1C(F)(F)F [VII-105] | 100% | 100% | 100% | 100% | 90% | 100% |  | 90% | 100% | 100% | 100% | 100% |  | 100% | 100% | 100% | 100% | 100% | 100% | Pre-emergence action against DIGSA in % [22]: 100%; Pre-emergence action against VERPE in % [23]: 90%; Pre-emergence action against MATIN in % [24]: 100%; Pre-emergence action at 320 g/ha against ALOMY in % [25]: 90%; Pre-emergence action against VIOTR in % [26]: 90%; Pre-emergence action against AMARE in % [27]: 90%; Pre-emergence action against POLCO in % [28]: 90%; Pre-emergence action against SETVI in % [29]: 80%; Post-emergence action against ALOMY [30]: 90% |
